Read-outs that look alike come from different tables or passages of the source.
Legend:
[1] = test system: A549 non-small cell lung cancer; experiment: MTT proliferation inhibition, A549; type: cell-based; settings: Homo sapiens, A549, read-out: Proliferation inhibition rate, A549 Non-small cell lung cancer
Text: (§1) 1. Cytotoxicity Assay Using Human Tumor Cell Lines
(§2) Paclitaxel was used as the positive drug.

[2] = test system: MDA-MB-436 breast cancer cells; experiment: MTT proliferation inhibition, MDA-MB-436; type: cell-based; settings: Homo sapiens, MDA-MB-436, read-out: Proliferation inhibition rate, MDA-MB-436 Breast cancer
Text: as §1, §2

A375 melanoma = experiment: MTT proliferation inhibition, A375; type: cell-based; settings: Homo sapiens, A-375, read-out: Proliferation inhibition rate, A375 Melanoma
Text: as §1, §2

B16 melanoma = experiment: MTT proliferation inhibition, B16; type: cell-based; settings: B16, read-out: Proliferation inhibition rate, B16 Melanoma
Text: as §1, §2

BGC-823 gastric cancer = experiment: MTT proliferation inhibition, BGC-823; type: cell-based; settings: Homo sapiens, BGC-823, read-out: Proliferation inhibition rate, BGC-823 Gastric cancer
Text: as §1, §2

LN-18 = experiment: MTT proliferation inhibition, LN-18; type: cell-based; settings: Homo sapiens, LN-18, read-out: Proliferation inhibition rate, LN-18 Gastric canser
Text: as §1, §2

[3] = Caco-2 cell monolayer membrane transport assay (Papp and recovery); type: in vitro ADME; settings: human, Caco-2, Caco-2, A-B
Text: Caco-2 Cell Monolayer Membrane Transport Assay
Human-derived colorectal adenocarcinoma cell line Caco-2 cell monolayer model was used to study the bidirectional transport of the target compounds from the apical (AP) side to the basolateral (BL) side and from BL side to AP side. HPLC was used for quantitative analysis to calculate transport parameters, apparent permeability coefficient (Papp) and the efflux ratio.

[4] = test system: breast cancer cell line MCF-7; experiment: IC50 on breast cancer cell line MCF-7; type: cell-based; settings: Homo sapiens, MCF7, 72 h, read-out: MCF-7 (IC50, nM)
Experimental: From the activity evaluation data of the above-mentioned preliminary screen, it can be seen that the series of taxanes derivatives synthesized in the present invention have activity. Afterward, the compounds are investigated to examine their IC50 values on breast cancer cell line MCF-7. […] Experiments for each compound were independently repeated for three times and multiple holes were used in each experiment. The exposure time of drugs was 72 hours.

LNCaP prostate cancer = experiment: MTT proliferation inhibition, LNCaP; type: cell-based; settings: Homo sapiens, read-out: Proliferation inhibition rate, LNCaP Prostate cancer
Text: as §1, §2

HCT 116 colon cancer = experiment: MTT proliferation inhibition, HCT 116; type: cell-based; settings: Homo sapiens, HCT-116, read-out: Proliferation inhibition rate, HCT 116 Colon cancer
Text: as §1, §2

HL-60 leukemia = experiment: MTT proliferation inhibition, HL-60; type: cell-based; settings: Homo sapiens, HL-60, read-out: Proliferation inhibition rate, HL60 Leukemia
Text: as §1, §2

Du145 prostate cancer = experiment: MTT proliferation inhibition, Du145; type: cell-based; settings: Homo sapiens, DU-145, read-out: Proliferation inhibition rate, DU145 Prostate cancer
Text: as §1, §2

K562 leukemia = experiment: MTT proliferation inhibition, K562; type: cell-based; settings: Homo sapiens, K562, read-out: Proliferation inhibition rate, K562 Leukemia
Text: as §1, §2

Hela cervical cancer = experiment: MTT proliferation inhibition, HeLa; type: cell-based; settings: Homo sapiens, read-out: Proliferation inhibition rate, HeLa Uterin cancer
Text: as §1, §2

A2780 ovarian cancer = experiment: MTT proliferation inhibition, A2780; type: cell-based; settings: Homo sapiens, A2780, read-out: Proliferation inhibition rate, A2780 Ovarian cancer
Text: as §1, §2

[5] = test system: MCF-7 breast cancer cells; experiment: MTT proliferation inhibition, MCF-7; type: cell-based; settings: Homo sapiens, MCF7, read-out: Proliferation inhibition rate, MCF-7 Breast cancer
Text: as §1, §2

HT-29 colon cancer = experiment: MTT proliferation inhibition, HT-29; type: cell-based; settings: Homo sapiens, HT-29, read-out: Proliferation inhibition rate, HT29 Colon cancer
Text: as §1, §2

[6] = test system: NCI-H460 non-small cell lung cancer; experiment: MTT proliferation inhibition, NCI-H460; type: cell-based; settings: Homo sapiens, NCI-H460, read-out: Proliferation inhibition rate, NCI-H460 Non-small cell lung cancer
Text: as §1, §2

[7] = Mean, read-out: Recovery rate in mass, Mean
[8] = Sample-01, read-out: Papp A-B, Sample-01
[9] = Sample-01, read-out: Recovery rate in mass, Sample-01
[10] = Sample-02, read-out: Papp A-B, Sample-02
[11] = Sample-02, read-out: Recovery rate in mass, Sample-02

Row | SMILES | inhibition at 1 µM [1] | inhibition at 1 µM [2] | inhibition at 1 µM (A375 melanoma) | inhibition at 1 µM (B16 melanoma) | inhibition at 1 µM (BGC-823 gastric cancer) | inhibition at 1 µM (LN-18) | recovery [3, 7] | Papp A→B [3, 8] | recovery [3, 9] | Papp A→B [3, 10] | recovery [3, 11] | IC50 [4] | inhibition at 1 µM (LNCaP prostate cancer) | inhibition at 1 µM (HCT 116 colon cancer) | inhibition at 1 µM (HL-60 leukemia) | inhibition at 1 µM (Du145 prostate cancer) | inhibition at 1 µM (K562 leukemia) | inhibition at 1 µM (Hela cervical cancer) | inhibition at 1 µM (A2780 ovarian cancer) | inhibition at 1 µM [5] | also measured
1 | CO[C@H]1C(=O)[C@]2(C)[C@@H](OC(=O)N(C)C)C[C@H]3OC[C@@]3(OC(C)=O)[C@H]2[C@H](OC(=O)c2ccccc2)[C@]23OC(=O)O[C@H]2[C@H](OC(=O)[C@H](O)[C@@H](NC(=O)OC(C)(C)C)c2ccccn2)C(C)=C1C3(C)C [PCMI-15] | 74.6% | 82% | 97.9% | 80.8% | 95% | 95.7% | 79.3% | 21.4 nm/s | 83.7% | 27.8 nm/s | 74.8% | 18.2 ± 0.24 nM | 86.7% | 68.3% | 97.8% | 90.8% | 93.2% | 101% | 95.7% | 95.5% | inhibition at 1 µM (HT-29 colon cancer): 88.7%; inhibition at 1 µM [6]: 86%
2 | CCSC(=O)O[C@H]1C(=O)[C@]2(C)[C@@H](OC)C[C@H]3OC[C@@]3(OC(C)=O)[C@H]2[C@H](OC(=O)c2ccccc2)[C@]23OC(=O)O[C@H]2[C@H](OC(=O)[C@H](O)[C@@H](NC(=O)OC(C)(C)C)c2ccccc2)C(C)=C1C3(C)C [PCMI-13] | 77.1% | 81% | 93.1% | 81.2% | 94% | 93.8% | 40.8 to 43.1% | < 13 nm/s | 40.8 to 42% | < 16.7 nm/s | 41.5 to 43.1% | 3.89 ± 0.12 nM | 86.3% | 68.5% | 97.5% | 90.7% | 94.2% | 100% | 95.9% | 84.7% | Papp A→B ([3]; Mean, read-out: Papp A-B, Mean): < 16.7 nm/s; inhibition at 1 µM (HT-29 colon cancer): 87.4%; inhibition at 1 µM [6]: 86.2%
3 | CCSC(=O)O[C@H]1C[C@H]2OC[C@@]2(OC(C)=O)[C@H]2[C@H](OC(=O)c3ccccc3)[C@]34OC(=O)O[C@H]3[C@H](OC(=O)[C@H](O)[C@@H](NC(=O)OC(C)(C)C)c3ccccc3)C(C)=C([C@@H](OC)C(=O)[C@]12C)C4(C)C [PCMI-21] | 74.9% | 83.1% | 96.7% | 75.8% | 93.3% | 94.7% | 72% | 23.2 nm/s | 76.6% | 25.8 nm/s | 67.5% | 3.46 ± 0.16 nM | 87.4% | 70.1% | 96.5% | 90.6% | 95% | 99.5% | 96.4% | 88.7% | Papp A→B ([3]; Mean, read-out: Papp A-B, Mean): 24.5 nm/s; inhibition at 1 µM (HT-29 colon cancer): 87.7%; inhibition at 1 µM [6]: 85.5%

Reference: patent US9890175B2, “Taxane compound, and preparation method and use thereof” (JIANGSU TASLY DIYI PHARMACEUTICAL CO., LTD., priority 2013, dated 2018)
